{"source": "patent US12419862B2", "about": "“Use of a cathepsin s inhibitor against the formation of anti-drug antibodies” (Hoffmann-La Roche Inc., priority 2018, dated 2025)", "key": {"[1]": {"test_system": "CEA-specific IgG response", "assay": "ADA against CEA-IL2v in hIgG1 Tg mice, ELISA (Example 1, 28 days)", "type": "in vivo, C57BL/6-Tg (hIgG1,k,l) mice", "settings": "40 mg/kg/day via food admix from one week before first immunization until day 28, vs vehicle", "from_the_text": "For immunogenicity assessment, we used the previously described human IgG1 immune-tolerant mouse model (Bessa, Boeckle et al. Pharm Res 2015, 32(7): 2344-2359). Since this human IgG transgenic mouse is tolerant to a broad range of human IgG1 antibodies (Abs), ADA responses elicited in this system are taken to reflect intrinsic immunogenic attributes of the eliciting Ab compounds also expected to cause ADA in humans.\n15-week-old mice C57BL/6 wild type and C57BL/6-Tg (hIgG1,k,l) were purchased from Taconic (Denmark) and housed at the animal facilities under a 12 hour (h) light 12 h dark cycle with cycles of air ventilation and free access to water and food. 7×10 μg of CEA-112v or 7×10 μg of Humira (Adalimumab, Abbvie Germany GmbH) were injected respectively at day 0, 4, 7, 11, 14, 18 and 21 subcutaneously in the right flank or the left flank alternatively. The dosage of the cathepsin S inhibitor consumption was 40 mg/kg/day. […]\n(§1) Nunc Maxisorp flat-bottom 96 well ELISA plates were coated with 100 μl per well of Humira or CEA-PGLALA (3.42 mg/ml, ID 8037) respectively at 5 μg/mL in NaHCO3100 mM buffer overnight at +4° C. […] 100 μl of substrate P-nitrophenyl phosphate ready to use (Life Technologies Cat no 002212) were added per well and after 10 min incubation at room temperature, the OD at 405 nm was read as an end-point measurement with a Versamax ELISA reader."}, "[2]": {"test_system": "CEA-specific IgG response", "assay": "ADA against CEA-IL2v in wild-type mice, ELISA (Example 1, 28 days)", "type": "in vivo, C57BL/6 wild type mice", "settings": "40 mg/kg/day via food admix from one week before first immunization until day 28, vs vehicle", "protocol": "15-week-old mice C57BL/6 wild type and C57BL/6-Tg (hIgG1,k,l) were purchased from Taconic (Denmark) and housed at the animal facilities under a 12 hour (h) light 12 h dark cycle with cycles of air ventilation and free access to water and food. 7×10 μg of CEA-112v or 7×10 μg of Humira (Adalimumab, Abbvie Germany GmbH) were injected respectively at day 0, 4, 7, 11, 14, 18 and 21 subcutaneously in the right flank or the left flank alternatively. The dosage of the cathepsin S inhibitor consumption was 40 mg/kg/day. The food admix (Ssniff Spezialdiäten, Germany) was given daily one day before the first immunization until day 28 for the mice immunized with Humira. The food admix was given daily one week before the first immunization until day 28 for the mice immunized with CEA-IL2v (R06895882). At day −12, 7, 14 and 28 blood samples were taken.\nas §1, with “C. The next day the ELISA plates were washed 3 times with PBS+0.05% Tween.” for “C.”"}, "[3]": {"test_system": "CEA-specific IgG response", "assay": "ADA against CEA-IL2v in hIgG1 Tg mice over time, ELISA (Example 4, 63 days)", "type": "in vivo, C57BL/6-Tg (hIgG1,k,l) mice", "settings": "40 mg/kg/day via food admix, primary and memory response, samples to day 63, vs vehicle", "protocol": "15-week-old mice C57BL/6-Tg (hIgG1,k,l) and C57BL/6 wild type mixed gender were purchased from Taconic (Denmark) and housed at the animal facilities in room with air-conditioned under a 12 hours light/dark cycle in macrolon boxes with enriched environment and free access to water and food. 7×10 μg of CEA-IL2v (Batch no GLI0144-01) were injected at day 0, 4, 7, 11, 14, 18 and 21 for the primary response, and at day 49, 53, 56 and 60 for the memory response. The CEA-112v injections were done subcutaneously in the right flank or the left flank alternatively. The dosage of (2S,4R)-4-[4-(1-methyl-1H-pyrazol-4-yl)-2-trifluoromethyl-benzenesulfonyl]-1-(1-trifluoromethyl-cyclopropanecarbonyl)-pyrrolidine-2-carboxylic acid (1-cyano-cyclopropyl)-amide consumption was 40 mg/kg/day. […]\nas §1, with “CEA-PGLALA” for “CEA-PGLALA (3.42 mg/ml, ID 8037)”, “Technologies,” for “Technologies”"}}, "note": "Entries after “also recorded” stand apart in the source; their conditions may differ.", "data": [{"smiles": "Cn1cc(-c2ccc(S(=O)(=O)[C@@H]3C[C@@H](C(=O)NC4(C#N)CC4)N(C(=O)C4(C(F)(F)F)CC4)C3)c(C(F)(F)F)c2)cn1", "note": "[cathepsin S inhibitor, (2S,4R)-4-[4-(1-methyl-1H-pyrazol-4-yl)-2-trifluoromethyl-benzenesulfonyl]-1-(1-trifluoromethyl-cyclopropanecarbonyl)-pyrrolidine-2-carboxylic acid (1-cyano-cyclopropyl)-amide]", "values": [{"measurement": "ADA to CEA-IL2v (CEA-specific IgG)", "setting": "[1]", "value": "prevents ADA to CEA-IL2v in hIgG transgenic mice; also recorded: complete abrogation of ADA to CEA-IL2v"}, {"measurement": "ADA to CEA-IL2v (CEA-specific IgG)", "setting": "[2]", "value": "reduces its levels in wild-type mice; also recorded: only partial reduction of ADA"}, {"measurement": "ADA to CEA-IL2v (CEA-specific IgG) over time", "setting": "[3]", "value": "prevents ADA to CEA-IL2v in hIgG transgenic mice"}]}]}
